pEC50: −log10 of the molar value.
Molecular target: T1, long form of human GPR120 (Homo sapiens, UniProt Q5NUL3)
T1 construct: host or cells: PathHunter CHO-K1 GPR120 β-Arrestin Cell Line
T1 sequence (Q5NUL3 1-377 isoform Q5NUL3-1): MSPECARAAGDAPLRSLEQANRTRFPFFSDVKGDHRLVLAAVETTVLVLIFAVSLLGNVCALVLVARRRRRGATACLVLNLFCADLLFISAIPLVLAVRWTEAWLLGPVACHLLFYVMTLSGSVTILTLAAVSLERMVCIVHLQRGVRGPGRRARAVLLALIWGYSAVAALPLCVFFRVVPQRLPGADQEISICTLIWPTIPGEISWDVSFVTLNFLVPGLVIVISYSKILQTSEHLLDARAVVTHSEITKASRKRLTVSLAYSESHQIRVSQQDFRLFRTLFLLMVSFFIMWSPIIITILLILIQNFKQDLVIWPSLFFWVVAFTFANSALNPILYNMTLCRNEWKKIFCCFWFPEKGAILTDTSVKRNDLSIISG
Assay: Human GPR120 DiscoveRx PathHunter Beta-Arrestin Assay, Procedure β-arrestin A (3000 cells per well)
Type: cell-based
Conditions: read-out: GPR120 B-arrestin A EC50
Source text: The binding of an agonist (medium/long chain fatty acids or small molecule agonists) to the G-protein-coupled receptor GPR120 activates phospholipase C, leading to release of intracellular Ca^+2 through the generation of inositol 1,4,5-trisphosphate (InsP3 or IP3). GPR120 activation can also trigger intracellular signaling via recruitment of β-Arrestin. In the present method, agonist-induced activation of the human GPR120 receptor is monitored through the use of PathHunter CHO-K1 GPR120 β-Arrestin Cell Line engineered by DiscoveRx, as detailed below. The cell lines are designed to co-express both the ProLink/Enzyme Donor (PK)-tagged GPCR and the Enzyme Activator (EA)-tagged β-Arrestin fusion proteins. Upon GPR120 receptor stimulation/activation, the EA-tagged β-Arrestin portion is translocated to the tagged receptor, where the two enzyme fragments are brought within close proximity. Under these conditions, these fragments can interact and form an active Beta-gal enzyme complex through Enzyme Fragment Complementation (EFC). This active Beta-gal complex can enzymatically hydrolyse the substrate to produce a detectable light signal; therefore, activation as a function of agonist concentration can be expressed as an EC50 value to determine relative compound activities. This in vitro assay therefore serves to assess compound agonist activity of the GPR120.
In Procedure β-arrestin A, the cell used were PathHunter CHO-K1 GPR120 β-Arrestin Cell Line, expressing the long form of human GPR120 (Genbank accession number NM_181745), with 3000 cells per well.
The selected CHO-K1 GPR120 β-Arrestin cells were cultured in Ham's F12 media supplemented with 10% fetal bovine serum (FBS), 1% Glutamine, 1×p/s, 800 μg/ml G418 and 300 μg/ml Hygromycin B (for selection). Cell stocks were maintained and grown in a sub-confluent state using standard cell culture procedures. The day before the experiment, the cells were harvested with non-enzymatic cell dissociation buffer and re-suspended in complete growth media at the desired concentration. A Corning 384-plate was then seeded with the proper number of cells in a volume of 25 μL, per well. The seeded plates were incubated overnight at 37° C.
On the day of the experiment, the Assay Buffer containing (a) HBSS with Ca^++ and Mg^++, (b) 20 mM HEPES, and (c) 0.1% BSA stabilizer (pH 7.4) was prepared. The growth medium was gently removed from the cell plates and 20 μL of Assay Buffer added to each well. The plate was then incubated at 37° C. for 60 mins. Test compounds were serially diluted in Assay Buffer to desired concentrations (more particularly, to one or more of the following μM concentrations: 25 μM, 12.5 μM, 6.25 μM, 3.125 μM, 1.562 μM, 0.781 μM, 0.391 μM, 0.195 μM, 0.098 μM, 0.049 μM, 0.024 μM, 0.012 μM). Five μl of compound dilution was then added to each well and the plate incubated at 37° C. for 90 mins. The detection reagents were prepared according to the manufacture's instruction. Twelve μL of the detection reagents were added to each well and the plate incubated at room temperature for 60 mins.
The plates were read on an EnVision instrument, using Protocol name: Luminescence, Plate type: 384 Costar, Measurement height: 3 mm, Measurement time: 1 s, Aperture: 384 Plate aperture. The % activity relative to the positive control was calculated using the following equation:
The % Activity values were plotted versus the concentration of test compound and fitted to a sigmoidal dose-response curve with a Hill slope=1 (fixed value) using nonlinear regression with GraphPad Prism 5.0 to calculate the EC50 values. The Fitting Equation was: Y=Bottom+(Top−Bottom)/(1+10^((LogEC50−X)*HillSlope)), where X is the log of the concentration and Y is the response.

| pEC50 | SMILES |
| --- | --- |
| 6.23 | Cc1c(CCC(=O)O)ccc(OCc2cc(Cl)cc3cc(C=CF)oc23)c1C (mixture of isomers) [Compound 88, 3-(4-((5-Chloro-2-(2-fluorovinyl)benzofuran-7-yl)methoxy)-2,3-dimethylphenyl)propanoic acid] |
| 6.77 | Cc1c(CCC(=O)O)ccc(OCc2cc(OC(F)(F)F)cc3cc(C=CF)oc23)c1C (mixture of isomers) [Compound 97, 3-(4-{[2-(2-Fluoroethenyl)-5-(trifluoromethoxy)-1-benzofuran-7-yl]methoxy}-2,3-dimethylphenyl)propanoic acid] |
| 6.43 | Cc1cc2cc(F)cc(COc3ccc(CCC(=O)O)c(C)c3C)c2o1 [Compound 2, 3-{4-[(5-Fluoro-2-methyl-1-benzofuran-7-yl)methoxy]-2,3-dimethylphenyl}propanoic acid] |
| 6.49 | CCc1cc2cc(F)cc(COc3ccc(CCC(=O)O)c(C)c3C)c2o1 [Compound 3, 3-{4-[(2-Ethyl-5-fluoro-1-benzofuran-7-yl)methoxy]-2,3-dimethylphenyl}propanoic acid] |
| 5.28 | Cc1c(CCC(=O)O)ccc(OCc2cc(F)cc3cc(C(F)(F)F)oc23)c1C [Compound 4, 3-(4-{[5-Fluoro-2-(trifluoromethyl)-1-benzofuran-7-yl]methoxy}-2,3-dimethylphenyl)propanoic acid] |
| 6.02 | Cc1oc2c(COc3ccc(CCC(=O)O)c(C)c3C)cc(F)cc2c1F [Compound 5, 3-{4-[(3,5-Difluoro-2-methyl-1-benzofuran-7-yl)methoxy]-2,3-dimethylphenyl}propanoic acid] |
| 6.97 | Cc1c(CCC(=O)O)ccc(OCc2cc(Cl)cc3cnn(C)c23)c1C [Compound 7, 3-{4-[(5-Chloro-1-methyl-1H-indazol-7-yl)methoxy]-2,3-dimethylphenyl}propanoic acid] |
| 6.21 | Cc1c(CCC(=O)O)ccc(OCc2cc(Cl)cc3cn(C)nc23)c1C [Compound 8, 3-{4-[(5-Chloro-2-methyl-2H-indazol-7-yl)methoxy]-2,3-dimethylphenyl}propanoic acid] |
| 6.34 | CCc1cc2cc(F)cc(COc3c(F)cc(CCC(=O)O)cc3F)c2o1 [Compound 17, 3-{4-[(2-Ethyl-5-fluoro-1-benzofuran-7-yl)methoxy]-3,5-difluorophenyl}propanoic acid] |
| 5.78 | Cc1c(CCC(=O)O)ccc(OCc2cc(F)cc3cc(C4CCCC4)oc23)c1C [Compound 18, 3-{4-[(2-Cyclopentyl-5-fluoro-1-benzofuran-7-yl)methoxy]-2,3-dimethylphenyl}propanoic acid] |
| 6.34 | COCc1cc2cc(F)cc(COc3ccc(CCC(=O)O)c(C)c3C)c2o1 [Compound 21, 3-(4-{[5-Fluoro-2-(methoxymethyl)-1-benzofuran-7-yl]methoxy}-2,3-dimethylphenyl)propanoic acid] |
| 6.10 | Cc1c(CCC(=O)O)ccc(OCc2cc(F)cc3cc(C(C)C)oc23)c1C [Compound 22, 3-(4-{[5-Fluoro-2-(1-methylethyl)-1-benzofuran-7-yl]methoxy}-2,3-dimethylphenyl)propanoic acid] |
| 6.33 | Cc1c(CCC(=O)O)ccc(OCc2cc(F)cc3cc(CC(C)C)oc23)c1C [Compound 23, 3-(4-{[5-Fluoro-2-(2-methylpropyl)-1-benzofuran-7-yl]methoxy}-2,3-dimethylphenyl)propanoic acid] |
| 6.21 | CCOc1cc(COc2ccc(CCC(=O)O)c(C)c2C)c2oc(CC)cc2c1 [Compound 29, 3-{4-[(5-Ethoxy-2-ethyl-1-benzofuran-7-yl)methoxy]-2,3-dimethylphenyl}propanoic acid] |
| 6.63 | CCCc1cc2cc(Cl)cc(COc3ccc(CCC(=O)O)c(C)c3C)c2o1 [Compound 31, 3-{4-[(5-Chloro-2-propyl-1-benzofuran-7-yl)methoxy]-2,3-dimethylphenyl}propanoic acid] |
| 5.54 | Cc1c(CCC(=O)O)ccc(OCc2cc(F)cc3cc(C(F)F)oc23)c1C [Compound 32, 3-(4-{[2-(Difluoromethyl)-5-fluoro-1-benzofuran-7-yl]methoxy}-2,3-dimethylphenyl)propanoic acid] |
| 6.72 | CCCc1cc2cc(OC(F)(F)F)cc(COc3ccc(CCC(=O)O)c(C)c3C)c2o1 [Compound 35, 3-(2,3-Dimethyl-4-{[2-propyl-5-(trifluoromethoxy)-1-benzofuran-7-yl]methoxy}phenyl)propanoic acid] |
| 6.57 | CCCc1cc2cc(C(F)(F)F)cc(COc3ccc(CCC(=O)O)c(C)c3C)c2o1 [Compound 37, 3-(2,3-Dimethyl-4-{[2-propyl-5-(trifluoromethyl)-1-benzofuran-7-yl]methoxy}phenyl)propanoic acid] |
| 6.97 | CCc1cc2cc(Cl)c(C)c(COc3ccc(CCC(=O)O)c(C)c3C)c2o1 [Compound 40, 3-{4-[(5-Chloro-2-ethyl-6-methyl-1-benzofuran-7-yl)methoxy]-2,3-dimethylphenyl}propanoic acid] |
| 6.20 | CCCc1cc2cc(Cl)cc(COc3ccc(CCC(=O)O)c(C)c3C#N)c2o1 [Compound 41, 3-{4-[(5-Chloro-2-propyl-1-benzofuran-7-yl)methoxy]-3-cyano-2-methylphenyl}propanoic acid] |
| 6.64 | CCc1cc2cc(Cl)c(OC)c(COc3ccc(CCC(=O)O)c(C)c3C)c2o1 [Compound 44, 3-{4-[(5-Chloro-2-ethyl-6-methoxy-1-benzofuran-7-yl)methoxy]-2,3-dimethylphenyl}propanoic acid] |
| 7.02 | CCc1cc2cc(Br)cc(COc3ccc(CCC(=O)O)c(C)c3C)c2o1 [Compound 45, 3-{4-[(5-Bromo-2-ethyl-1-benzofuran-7-yl)methoxy]-2,3-dimethylphenyl}propanoic acid] |
| 6.71 | CCCc1cc2cc(I)cc(COc3ccc(CCC(=O)O)c(C)c3C)c2o1 [Compound 47, 3-{4-[(5-Iodo-2-propyl-1-benzofuran-7-yl)methoxy]-2,3-dimethylphenyl}propanoic acid] |
| 6.29 | Cc1c(CCC(=O)O)ccc(OCc2cc(F)cc3cc(C#N)oc23)c1C [Compound 49, 3-{4-[(2-Cyano-5-fluoro-1-benzofuran-7-yl)methoxy]-2,3-dimethylphenyl}propanoic acid] |
| 6.30 | CCCc1cc(OCc2cc(OC(F)(F)F)cc3cc(CC)oc23)c(F)cc1CCC(=O)O [Compound 50, 3-(4-{[2-Ethyl-5-(trifluoromethoxy)-1-benzofuran-7-yl]methoxy}-5-fluoro-2-propylphenyl)propanoic acid] |
| 6.43 | CCc1cc2cc(OC(F)(F)F)cc(COc3ccc(CCC(=O)O)c4c3CCC4)c2o1 [Compound 52, 3-(7-{[2-Ethyl-5-(trifluoromethoxy)-1-benzofuran-7-yl]methoxy}-2,3-dihydro-1H-inden-4-yl)propanoic acid] |
| 7.14 | Cc1cc2cc(OC(F)(F)F)cc(COc3ccc(CCC(=O)O)c4c3CCC4)c2o1 [Compound 55, 3-(7-{[2-Methyl-5-(trifluoromethoxy)-1-benzofuran-7-yl]methoxy}-2,3-dihydro-1H-inden-4-yl)propanoic acid] |

Reference: patent US9562053B2, “Benzo-fused heterocyclic derivatives useful as agonists of GPR120” (Janssen Pharmaceutica NV, priority 2013, dated 2017)
